From publication PMC10816640, “Discovery of Novel Diphenyl Acrylonitrile Derivatives That Promote Adult Rats’ Hippocampal Neurogenesis” (International Journal of Molecular Sciences, 2024)
Entries after “also recorded” stand apart in the source; their conditions may differ.

How the values were obtained:
[1] = system: progenitors in rodents’ hippocampi; set-up: method as in PMID 28525839; conditions: cited from earlier work
[2] = system: progenitor cells in the rodents’ hippocampi; assay: Proliferation stage of neurogenesis: BrdU labeling, rats sacrificed 24 h after BrdU; format: in vivo, rat; conditions: i.p. 4.0 mg/kg/day for 28 days, BrdU pulse, vs vehicle; for proliferation-promoting activity (number of BrdU+ positive cells): nine-week-old rats (n = 4)
Excerpt: (§1) Previous in vitro or in vivo studies mainly focused on stimulating the proliferation effect of the small molecules. In this study, a two-step protocol was employed. First, the stimulating function of the compounds on progenitor cells in the rodents’ hippocampi was examined with using bromodeoxyuridine (BrdU) labeling. Next, the potent compounds were further screened to ascertain their ability to promote the differentiation of neural progenitor cells, as confirmed by dual labeling of BrdU and NeuN (neuronal nuclear antigen).
Adult rats were administered intraperitoneally with the prepared compounds at a dose of 4.0 mg/kg/day for a period of 28 days, followed by a BrdU pulse. After 24 h, the rats were sacrificed, and their brain tissues were isolated and cryosectioned. Immunohistochemical staining was performed and eight brain tissue slices were randomly selected for statistical analyzing.
Eight-week-old (or 10-week-old) SD male rats purchased from Peking University Health Science Center were acclimatized for one week at the Beijing Institute of Technology. All experimental protocols strictly adhered to the regulations governing the management of experimental animals and the animal ethics policy of the Beijing Institute of Technology.
(§2) The compounds were dissolved in reagent-grade soybean oil containing 10% ethanol to reach a drug concentration of 2.8 mg/mL. The rats in the experimental group received intraperitoneal injections of the compounds at a dose of 4.0 mg/kg/d for 28 consecutive days. As a control, the vehicle group was administered injections of reagent-grade soybean oil containing 10% ethanol. BrdU (Sigma-Aldrich, St. louis, MA, USA) solution, prepared in physiological saline at a concentration of 10 mg/mL, was administered to all rats on day 29. Each rat received two injections of BrdU at a dosage of 50 mg/kg, with a 2 h interval between injections. The rats were euthanized 24 h (or 28 days) after the final BrdU injection.
(§3) Two or four rats per group were anesthetized using pentobarbital sodium (70 mg/kg) and subsequently perfused with physiological saline. The brain tissue was carefully dissected and fixed in 4% paraformaldehyde at 4 °C for one week. Next, the brain tissue underwent dehydration using a phosphate-buffered saline (PBS) solution containing 20% to 30% sucrose. Finally, the brain tissue was cryosectioned into slices with a thickness of 30 μm, and eight slices were randomly selected for further analysis.
The assessment of new cell proliferation was conducted using BrdU staining. To eliminate endogenous peroxides, sections were exposed to 1% H2O2 for 30 min at RT. Cellular denaturation was achieved by treating the sections with 2 M HCl at 37 °C for 1 h, followed by rinsing in 0.1 M borate buffer (pH 8.5). Tissue sections were subjected to blocking in a solution consisting of 5% goat serum and 0.5% Triton X-100 in PBS at RT for 1–2 h. The specimens were then incubated overnight at 4 °C with a mouse primary antibody specific to BrdU (diluted at 1:500; Millipore, Billerica, MA, USA). Subsequently, the DAB kit was employed for 2 h of incubation at RT.
(§4) The data were presented as mean ± SEM (standard error of the mean) and visualized using GRAPHPAD PRISM 6 (Graphpad Software, La Jolla, CA, USA). Statistical analysis was conducted utilizing one-way analysis of variance (ANOVA) followed by a post hoc test. Subsequent to the statistical treatment, the observed discrepancies were determined to be statistically significant (p < 0.05).

[3] = system: newborn cells in the subgranular zone; assay: BrdU+ newborn cells, rats sacrificed 28 days after BrdU; format: in vivo, rat; conditions: nine-week-old rats (n = 2), i.p. 4.0 mg/kg/day for 28 days, BrdU pulse, Figure 7A
Method: The study employed a rat model, wherein nine-week-old rats were administered intraperitoneally with the compound at a dose of 4.0 mg/kg/day for 28 days and then treated with a pulse of BrdU. Instead of sacrificing the rats 24 h after the BrdU injections, the rats were sacrificed after another 28 days. The brains were then isolated and cryosectioned. Eight randomly selected slices were subjected to immunohistochemical staining. This staining enabled the co-localization of the BrdU-incorporated cells with the NeuN marker, enabling the definition of the compounds that could promote the differentiation of newborn neural progenitor cells into mature functional neurons. The compounds were dissolved in reagent-grade soybean oil containing 10% ethanol to reach a drug concentration of 2.8 mg/mL. The rats in the experimental group received intraperitoneal injections of the compounds at a dose of 4.0 mg/kg/d for 28 consecutive days. As a control, the vehicle group was administered injections of reagent-grade soybean oil containing 10% ethanol. BrdU (Sigma-Aldrich, St. louis, MA, USA) solution, prepared in physiological saline at a concentration of 10 mg/mL, was administered to all rats on day 29. Each rat received two injections of BrdU at a dosage of 50 mg/kg, with a 2 h interval between injections. The rats were euthanized 24 h (or 28 days) after the final BrdU injection. Two or four rats per group were anesthetized using pentobarbital sodium (70 mg/kg) and subsequently perfused with physiological saline. The brain tissue was carefully dissected and fixed in 4% paraformaldehyde at 4 °C for one week. Next, the brain tissue underwent dehydration using a phosphate-buffered saline (PBS) solution containing 20% to 30% sucrose. Finally, the brain tissue was cryosectioned into slices with a thickness of 30 μm, and eight slices were randomly selected for further analysis. The assessment of new cell proliferation was conducted using BrdU staining. To eliminate endogenous peroxides, sections were exposed to 1% H2O2 for 30 min at RT. Cellular denaturation was achieved by treating the sections with 2 M HCl at 37 °C for 1 h, followed by rinsing in 0.1 M borate buffer (pH 8.5). Tissue sections were subjected to blocking in a solution consisting of 5% goat serum and 0.5% Triton X-100 in PBS at RT for 1–2 h. The specimens were then incubated overnight at 4 °C with a mouse primary antibody specific to BrdU (diluted at 1:500; Millipore, Billerica, MA, USA). Subsequently, the DAB kit was employed for 2 h of incubation at RT. The differentiation process of NPCs was visualized through the utilization of the NeuN/BrdU double staining technique. Tissue sections were subjected to an incubation period in a blocking buffer at RT for 1 to 2 h. The specimens were exposed to a rabbit anti-NeuN antibody (diluted at 1:500, Abcam, Cambridge, MA, UK) and a primary antibody, BrdU (diluted at 1:500), overnight at 4 °C. Afterwards, the sections were treated with anti-mouse 488 and anti-rabbit TRITC secondary antibodies for 2 h at RT. The data were presented as mean ± SEM (standard error of the mean) and visualized using GRAPHPAD PRISM 6 (Graphpad Software, La Jolla, CA, USA). Statistical analysis was conducted utilizing one-way analysis of variance (ANOVA) followed by a post hoc test. Subsequent to the statistical treatment, the observed discrepancies were determined to be statistically significant (p < 0.05).

[4] = system: newborn neural progenitor cells (differentiation into mature neurons); assay: Differentiation stage of neurogenesis: NeuN/BrdU double staining, rats sacrificed 28 days after BrdU; format: in vivo, rat; conditions: for neurogenesis-promoting activity (number of NeuN+ and BrdU+ cells), differentiation stage: nine-week-old rats (n = 4), i.p. 4.0 mg/kg
Excerpt: as §1
The study employed a rat model, wherein nine-week-old rats were administered intraperitoneally with the compound at a dose of 4.0 mg/kg/day for 28 days and then treated with a pulse of BrdU. Instead of sacrificing the rats 24 h after the BrdU injections, the rats were sacrificed after another 28 days. The brains were then isolated and cryosectioned. Eight randomly selected slices were subjected to immunohistochemical staining. This staining enabled the co-localization of the BrdU-incorporated cells with the NeuN marker, enabling the definition of the compounds that could promote the differentiation of newborn neural progenitor cells into mature functional neurons.
as §2, §3
The differentiation process of NPCs was visualized through the utilization of the NeuN/BrdU double staining technique. Tissue sections were subjected to an incubation period in a blocking buffer at RT for 1 to 2 h. The specimens were exposed to a rabbit anti-NeuN antibody (diluted at 1:500, Abcam, Cambridge, MA, UK) and a primary antibody, BrdU (diluted at 1:500), overnight at 4 °C. Afterwards, the sections were treated with anti-mouse 488 and anti-rabbit TRITC secondary antibodies for 2 h at RT.
as §4

hCMEC/D3 cells = assay: CCK-8 assay for cytotoxicity; format: cell-based; conditions: hCMEC/D3 cell lines, CCK-8, 48 h incubation
Method: hCMEC/D3 cells were obtained from the Cell Resource Center, Peking Union Medical College (PCRC). All cells were acquired in 2023 and were maintained in culture for no more than 10 continuous passages. The cells were cultured in DMEM (11995065, Gibco, Grand Island, NY, USA) supplemented with 10% FBS (164210-50, Procell, Austin, TX, USA), 100 units of penicillin, and […] of streptomycin (PB180120, Procell).
hCMEC/D3 cells (5 × 10^3) were seeded into 96-well plates in 90 μL of DMEM medium containing 10% fetal bovine serum per well. All test compounds were formulated as 10 mM stock solutions in DMSO (final concentration ≤ 0.5%). After overnight incubation, the test compound stock solution was diluted with DMEM medium containing 10% fetal bovine serum to every target concentration, and 10 μL of each was added to each well. Three parallel experiments were set up for each compound. After incubation for 48 h, 10 μL of CCK-8 reagent was added to each well in sequence according to the manufacturer’s instructions. After incubating in a 37 °C incubator for 1–2 h, the absorbance was measured at a wavelength of 450 nm, using a wavelength of 620 nm as a reference, and detected with a ThermoScientific Multiskan FC (Thermo Fisher Scientific). The graphs are representative results, and this experiment was independently repeated three times with similar results.

CC(=O)Nc1ccc(/C=C/c2ccc3c(c2)OCO3)cc1 [WS-6, N-trans-3′,4′-methylenedioxystilben-4-yl acetamide]
promoting the proliferation of progenitors and differentiation into neurons [1]: excellent capacity

CC(C)NC(=O)c1ccc(/C=C/c2ccc3c(c2)OCO3)cc1 [39b, (E)-4-(2-(benzo[d][1, 3]dioxol-5-yl)vinyl)-N-isopropylbenzamide]
proliferation-promoting activity (number of BrdU+ newborn cells) ([2]; eleven-week-old rats (n = 2), Figures 3-6, 4 mg/kg/day): significant proliferation-promoting activity; also recorded: activity comparable to that found in amides 8c, 8d, and 29b | proliferative activity over the longer 28 day period (number of BrdU+ cells) [3]: could promote the proliferation of progenitors | neurogenesis-promoting activity (number of NeuN+ and BrdU+ cells, newborn neurons) ([4]; nine-week-old rats (n = 2), i.p. 4.0 mg/kg/day for 28 days, BrdU pulse, Figure 7B): ranked second in terms of activity, without statistical significance

CC(C)CCNc1ncccc1C(=O)N1CCN(Cc2ccccc2)CC1 [NSI-189, reference compound]
proliferation-promoting activity (number of BrdU+ positive cells) ([2]; Figure 8): inactive | neurogenesis-promoting activity (number of NeuN+ and BrdU+ cells), differentiation stage ([4]; Figure 9): no significant neurogenesis-promoting activity

CC(=O)Nc1ccc(/C=C(\C#N)c2ccc3c(c2)OCO3)cc1 [32a, (Z)-N-(4-(2-(benzo[d][1, 3]dioxol-5-yl)-2-cyanovinyl)phenyl)acetamide]
proliferation-promoting activity (number of BrdU+ positive cells) ([2]; Figure 8, 4 mg/kg/day): significant proliferation-promoting activity; also recorded: exhibited proliferative activity | neurogenesis-promoting activity (number of NeuN+ and BrdU+ cells), differentiation stage ([4]; Figure 9, 4 mg/kg): significant neurogenesis-promoting activity; also recorded: better activity than the clinical drug NSI-189 | IC50 (hCMEC/D3 cells): 109 ± 12.9 µM
